Results as given in patent publication US8198279B2, “Pyrido[2,3-b]pyrazin-8-substituted compounds and their use” (Institute of Cancer Research: Royal Cancer Hospital (The), priority 2007, dated 2012).
pIC50: −log10 of the molar value. Values joined by “and” are separate entries in the source; they are usually repeats but may differ in a detail not shown here. Identical values can stand only once.

Assays:
WM266.4 melanoma cells = experiment: SRB Cell Proliferation Assay (SRB GI50); assay type: cell-based; conditions: Homo sapiens, WM 266-4, 144 h, 6 days growth
Procedure: Biological Methods —SRB Cell Proliferation Assay (SRB GI50)
Cultures of WM266.4 melanoma cells are routinely cultured in DMEM/10% foetal bovine serum, at 37° C., in 5% CO2 water saturated atmosphere. Cultures are maintained in exponential growth phase by sub-culturing before having become confluent (3-5 day intervals). Single cell suspensions are prepared by harvesting an 80 cm^2 tissue culture flask with 5 mL commercial trypsin EDTA. After 5 minutes, the detached cells are mixed with 5 mL fully complemented culture medium and centrifugally pelleted (1000 rpm for 7 minutes). After aspirating the supernatant, the cell pellet is re-suspended in 10 mL fresh medium and the cells fully disaggregated by drawing the whole volume up/down 5 times through a 19-gauge needle. The concentration of the cells is determined using a haemocytometer (1/10 dilution). A suitable volume to give at least a 2-fold excess for the number of tests being conducted, typically 100-200 mL, is prepared by diluting the cell suspension to 10,000/mL, and 100 μL/well dispensed into 96 well plates using a programmable 8-channel peristaltic pump, giving 1000 cells/well, leaving column 12 blank. The plates are returned to the incubator for 24 hours to allow the cells to re-attach.
The compounds being tested are prepared at 20 mM in dimethylsulphoxide. Aliquots (200 μL) are diluted into 20 mL culture medium giving 200 μM, and 10 serial dilutions of 3× performed by transferring 5 mL to 10 mL. Aliquots (100 μL) of each dilution are added to the wells, using an 8-channel pipettor, thus performing a final further 2× dilution, and giving doses ranging from 100 μM to 0.005 μM. Column 11 receives plain culture medium only. Each compound is tested in quadruplicate, each replicate being the average of four wells, and two plates per compound.
After a further 6 days growth, the plates are emptied, and the cells are fixed in 10% trichloroacteic acid for 10 minutes on ice. After thorough rinsing in running tap water, the plates are dried, and stained by adding 50 μL of a solution of 0.1% sulphorhodamine-B in 1% acetic acid, for 10 minutes at room temperature. The stain is poured out and the plates thoroughly rinsed under a stream of 1% acetic acid, thus removing unbound stain, and dried. The bound stain is taken into solution by addition of 150 μL Tris buffer pH 8, followed by 10 minutes on a plate-shaker (approximately 500 rpm). The absorbance at 540 nm in each well (being proportional to the number of cells present) is determined using a plate reader.
After averaging the results in rows A-D and E-H, the blank value (row 12) is subtracted, and results expressed as percentage of the untreated value (row 11). […] The GI50 generated by this procedure is the concentration of the drug that produces a percentage control A540 midway between the saturation, and zero-effect plateaus.

B-RAF = molecular target: T1, B-RAF (Homo sapiens, UniProt P15056, V600E); experiment: DELFIA Kinase Assay; assay type: biochemical; conditions: 100 μM ATP, GST-MEK substrate
T1 construct: made in house
Procedure: Biological Methods—DELFIA Kinase Assay
Compounds were assessed by a kinase assay performed according to the following protocol.
DKB1 (DKB with B-RAF and MEK Protein):
Combine 4950 μL of DKB and 50 μL of 2.5 mg/ml GST-MEK stock (to give […] of MEK per 40 μL). Then add 22.5 μL of B-RAF to give ˜0.2 μL of B-RAF per 40 μL.
100 mM stock, dilute to 500 μM to give 100 μM final concentration in assay.
• 1. Preblock wells with 5% milk in TBS for 1 hour. • 2. Wash wells with 3× with 200 μL TBS. • 3. Plate out 40 μL of DKB1 for all inhibitors (test compounds), DMSO control, and optionally other control compounds. • 4. Plate out 40 μL of DKB2 for BO and EV wells. • 5. Add inhibitors (test compounds) at 0.5 μL per well according to desired plate layout. • 6. Add 0.5 μL DMSO to vehicle control wells. • 7. Add 2 μL of B-RAF to BO and EV wells. • 8. Pre-incubate with inhibitors (test compounds) for 10 minutes at room temperature with shaking. • 9. Add 10 μL of 500 μM ATP stock, in DKB, to give 100 μM assay concentration. • 10. Seal plates with TopSeal and incubate at room temperature with shaking for 45 minutes. • 11. Wash plates 3× with 200 μL 0.1% Tween20/Water to terminate reaction. • 12. Add 50 μL per well of antibody mix and incubate for 1 hour at room temperature with shaking. • 13. Wash plates 3× with 200 μL 0.1% Tween20/Water. • 14. Add 100 μL DELFIA enhancement solution per well, cover in foil, and incubate at room temperature for 30 minutes with shaking. • 15. Read on Victor using Europium protocol.
(§1) Values for the blank (Empty Vector) are subtracted from all values. The DMSO controls are set as 100% activity and assay points (the response) are calculated as a percentage of the DMSO control. Data are plotted using Graphpad Prism software and a non-linear regression line is calculated using a variable slope sigmoidal dose-response equation (Y=Bottom+(Top−Bottom)/(1+10^((LogEC50−X)*HillSlope)) where X is the logarithm of concentration. Y is the response). The IC50 generated by this procedure is the concentration of the drug that produces a percentage control fluorescence value midway between the saturation, and zero-effect plateaus. Three independent assays are usually performed and the mean IC50 is reported.

pERK = experiment: Cell Based Phospho-ERK Assay; conditions: 6 h, 6 hours incubation with test compound
Procedure: Biological Methods—Cell Based Phosho-ERK Assay
Compounds were assessed using a cell-based assay which was performed according to the following protocol.
Plate out 16,000 cells/well in 99 μL medium in a 96-well plate.
• 1. Add 1 μL inhibitor to the cells (total […] solution). • 2. Incubate the cells with test compound for 6 hours at 37° C. • 3. Aspirate off the solution from all of the wells. • 4. Fixate the cells with 100 μL 4% formaldehyde/0.25% Triton X-100 PBS per well. • 5. Incubate the plate for 1 hour at 4° C. • 6. Aspirate off the fixing solution and add 300 μL TBS per well. • 7. Leave the plate overnight at 4° C. Day 2: • 1. Wash the plate 2× with 200 μL PBS per well. • 2. Block with 100 μL 5% dried milk in TBS. • 3. Incubate the plate for 20 minutes at 37° C. • 4. Wash the plate 2× with 0.1% tween/H2O. • 5. Add 50 μL of 3 μg/mL primary antibody pERK (Sigma M8159), diluted in 5% milk powder/TBS, to each well. • 6. Incubate the plate for 2 hours at 37° C. • 7. Wash the plate 3× with 0.1% tween/H2O. • 8. Add 50 μL of 0.45 μg/mL secondary Europium-labelled anti-mouse antibody (Perkin Elmer) to each well. • 9. Incubate the plate for 1 hour at 37° C. • 10. Wash the plate 3× with 0.1% tween/H2O. • 11. Add 100 μL enhancement solution (Perkin Elmer) to each well. • 12. Leave the plate for approximately 10 minutes at room temperature before gently shaking the plate. • 13. Read Europium Time Resolved Fluorescence in Victor2. • 14. Wash the plate 2× with 0.1% tween/H2O. • 15. Measure the protein concentration with BCA (Sigma) by adding 200 μL of solution per well. • 16. Incubate the plate for 30 minutes at 37° C. • 17. Read absorbance levels at 570 nm in a plate reader.
Note that Europium counts are normalised for protein levels by dividing counts by absorbance.
as §1, with “(no cells)” for “(Empty Vector)”

T1 sequence (P15056 whole entry V600E): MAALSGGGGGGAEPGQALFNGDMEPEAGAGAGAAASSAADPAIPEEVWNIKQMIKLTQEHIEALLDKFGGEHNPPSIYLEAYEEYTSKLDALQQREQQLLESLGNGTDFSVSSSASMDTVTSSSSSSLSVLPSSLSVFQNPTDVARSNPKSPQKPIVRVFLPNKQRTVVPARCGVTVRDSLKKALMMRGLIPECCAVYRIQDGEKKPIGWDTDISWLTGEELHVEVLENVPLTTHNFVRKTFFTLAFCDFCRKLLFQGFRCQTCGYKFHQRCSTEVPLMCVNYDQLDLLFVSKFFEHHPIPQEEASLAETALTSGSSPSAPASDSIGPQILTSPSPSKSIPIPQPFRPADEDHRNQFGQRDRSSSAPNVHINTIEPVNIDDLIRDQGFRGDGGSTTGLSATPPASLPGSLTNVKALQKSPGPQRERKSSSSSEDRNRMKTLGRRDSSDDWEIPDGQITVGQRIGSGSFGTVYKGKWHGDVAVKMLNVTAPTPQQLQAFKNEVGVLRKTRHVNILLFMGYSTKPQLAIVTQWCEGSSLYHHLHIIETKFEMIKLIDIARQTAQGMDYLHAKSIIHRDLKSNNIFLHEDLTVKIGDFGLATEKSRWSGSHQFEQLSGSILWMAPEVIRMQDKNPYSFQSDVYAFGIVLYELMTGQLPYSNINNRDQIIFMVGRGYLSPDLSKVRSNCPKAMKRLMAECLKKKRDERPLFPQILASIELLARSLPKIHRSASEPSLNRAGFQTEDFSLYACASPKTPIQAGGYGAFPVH

SMILES | GI50 (WM266.4 melanoma cells) [µM] | pIC50 (B-RAF) | pIC50 (pERK)
O=C(Nc1cc(C(F)(F)F)ccc1F)Nc1ccc(Oc2ccnc3[nH]c(=O)cnc23)c2ccccc12 [AA-012, 1-(2-fluoro-5-(trifluoromethyl)phenyl)-3-(4-(3-oxo-3,4-dihydropyrido[2,3-b]pyrazin-8-yloxy)naphthalen-1-yl)urea] | 1 to 10 | > 6.00 and 6.00 to 7.00 | 
O=C(Nc1ccc(Cl)c(C(F)(F)F)c1)Nc1ccc(Oc2ccnc3ncc(=O)[nH]c23)c2ccccc12 [AA-037, 1-(4-chloro-3-(trifluoromethyl)phenyl)-3-(4-(1-oxo-1,2-dihydropyrido[2,3-b]pyrazin-8-yloxy)naphthalen-1-yl)urea] | < 10 | > 6.00 and 6.00 to 7.00 | 
CNc1cnc2c(Oc3ccc(NC(=O)Nc4cc(C(F)(F)F)ccc4F)c(F)c3)ccnc2n1 [AA-055, 1-(2-fluoro-4-(3-(methylamino)pyrido[3,2-b]pyrazin-8-yloxy)phenyl)-3-(2-fluoro-5-(trifluoromethyl)phenyl)urea] | 1 to 10 | > 6.00 and 6.00 to 7.00 | 
Cc1ccc(-n2nc(C(C)(C)C)cc2NC(=O)Nc2ccc(Oc3ccnc4[nH]c(=O)c(N)nc34)cc2F)cc1 [AA-057, 1-(4-(2-amino-3-oxo-3,4-dihydropyrido[2,3-b]pyrazin-8-yloxy)-2-fluorophenyl)-3-(3-tert-butyl-1-p-tolyl-1H-pyrazol-5-yl)urea] | < 1 | 6.00 to 7.00 | > 6.00
Cc1ccc(-n2nc(C(C)(C)C)cc2NC(=O)Nc2ccc(Oc3ccnc4nc(CBr)c(=O)[nH]c34)cc2F)cc1 [AA-058, 1-(4-(3-(bromomethyl)-2-oxo-1,2-dihydropyrido[2,3-b]pyrazin-8-yloxy)-2-fluorophenyl)-3-(3-tert-butyl-1-p-tolyl-1H-pyrazol-5-yl)urea] | 1 to 10 | 6.00 to 7.00 | 5.00 to 6.00
CSc1cc(Oc2ccnc3[nH]c(=O)c(C)nc23)ccc1NC(=O)Nc1cc(C(F)(F)F)ccc1F [AA-060, 1-(2-fluoro-5-(trifluoromethyl)phenyl)-3-(4-(2-methyl-3-oxo-3,4-dihydropyrido[2,3-b]pyrazin-8-yloxy)-2-(methylthio)phenyl)urea] | < 1 | > 7.00 | > 6.00
CSc1cc(Oc2ccnc3[nH]c(=O)c(C)nc23)ccc1NC(=O)Nc1cc(C(C)(C)C)nn1-c1ccc(C)cc1 [AA-061, 1-(3-tert-butyl-1-p-tolyl-1H-pyrazol-5-yl)-3-(4-(2-methyl-3-oxo-3,4-dihydropyrido[2,3-b]pyrazin-8-yloxy)-2-(methylthio)phenyl)urea] | < 1 | > 7.00 | > 6.00

Now from value to compound:

GI50 (WM266.4 melanoma cells) [µM] | pIC50 (B-RAF) | pIC50 (pERK) | SMILES
< 1 | > 7.00 | > 6.00 | COc1ccc(-n2nc(C(C)(C)C)cc2NC(=O)Nc2ccc(Oc3ccnc4[nH]c(=O)cnc34)cc2F)cn1 [AA-062, 1-(3-tert-butyl-1-(6-methoxypyridin-3-yl)-1H-pyrazol-5-yl)-3-(2-fluoro-4-(3-oxo-3,4-dihydropyrido[2,3-b]pyrazin-8-yloxy)phenyl)urea]
< 1 | > 7.00 | > 6.00 | COc1ccc(-n2nc(C(C)(C)C)cc2NC(=O)Nc2ccc(Oc3ccnc4[nH]c(=O)cnc34)cc2SC)cn1 [AA-063, 1-(3-tert-butyl-1-(6-methoxypyridin-3-yl)-1H-pyrazol-5-yl)-3-(2-(methylthio)-4-(3-oxo-3,4-dihydropyrido[2,3-b]pyrazin-8-yloxy)phenyl)urea]
1 to 10 | 6.00 to 7.00 |  | CN(C)c1cnc2c(Oc3ccc(NC(=O)Nc4cc(C(F)(F)F)ccc4F)c(F)c3)ccnc2n1 [AA-068, 1-(4-(3-(dimethylamino)pyrido[3,2-b]pyrazin-8-yloxy)-2-fluorophenyl)-3-(2-fluoro-5-(trifluoromethyl)phenyl)urea]
1 to 10 |  | 5.00 to 6.00 | CN(C)c1cnc2c(Oc3ccc(NC(=O)Nc4cc(C(C)(C)C)nn4-c4ccccc4)c(F)c3)ccnc2n1 [AA-070, 1-(3-Tert-butyl-1-phenyl-1H-pyrazol-5-yl)-3-(4-(3-(dimethylamino)pyrido[3,2-b]pyrazin-8-yloxy)-2-fluorophenyl)urea]
< 1 |  | > 6.00 | Cc1ccc(-n2nc(C(C)(C)C)cc2NC(=O)Nc2ccc(Oc3ccnc4nc(N5CCOCC5)cnc34)cc2F)cc1 [AA-073, 1-(3-tert-butyl-1-p-tolyl-1H-pyrazol-5-yl)-3-(2-fluoro-4-(3-morpholinopyrido[3,2-b]pyrazin-8-yloxy)phenyl)urea]
1 to 10 |  | > 6.00 | CC(C)(C)c1cc(NC(=O)Nc2ccc(Oc3ccnc4[nH]c(=O)cnc34)cc2F)n(CC2CCC2)n1 [AA-099, 1-(3-Tert-butyl-1-(cyclobutylmethyl)-1H-pyrazol-5-yl)-3-(2-fluoro-4-(3-oxo-3,4-dihydropyrido[3,2-b]pyrazin-8-yloxy)phenyl)urea]
